Earlier results, collected in patent publication US20020160947A1, “Synergistic method for prolonging allograft survival” (Millennium Pharmaceuticals, Inc., priority 2001, published 2002).

System: activated T-cells
Settings: activated versus resting T cells

## CC(=O)N[C@@H](CSC(=O)[C@]1([C@@H](O)C(C)C)NC(=O)[C@H](C)[C@@H]1O)C(=O)O [lactacystin]
  induction of apoptosis of T cells: induction of apoptosis of activated T-cells, but not resting T cells
